The conditions of data set [1]: cited from earlier work; for metabolism and defluorination relative to the undeuterated compound: U.S. Patent 4,154,971, U.S. Patent 4,153,636.
The conditions of data set [2]: cited from earlier work.
In a further data set the test system is mice. As to conditions: cited from earlier work.
For the next data set, the system named is Male Sprague-Dawley rats. Kind of data set: Induction of anesthesia in exposure chamber at 3% anesthetic. The data set is classed as in vivo. Conditions: initial concentration 3% anesthetic in 100% oxygen, 3.8 L chamber. Here is the method:
(§1) The animals were exposed in a 3.8 L plastic exposure chamber with an atmosphere of 100% oxygen. Male Sprague-Dawley rats (200-220g, 4 per group) were placed in the chamber and the chamber was flushed with oxygen and sealed. Anesthetic was introduced into the chamber in liquid form via an injection port. Quantities were introduced to give initial concentrations of 3% anesthetic (enflurane, 464 µl; sevoflurane and D2-sevoflurane, 524 µl). The rats became anesthetized within 4-6 minutes after introduction of each anesthetic. Oxygen and carbon dioxide were monitored periodically during the exposure period with an Ohmeda 6000 multi-gas monitor.

Data set [3] can be described thus: In vivo metabolism: plasma fluoride after 30 minute inhalation exposure. As to conditions: 30 minute exposure, 3% anesthetic. Also noted: species or system Male Sprague-Dawley rats.
From the text: Untreated rats or rats treated with isoniazid or phenobarbital were exposed to D2-sevoflurane, sevoflurane, or enflurane to determine the relative rates of fluoride production in vivo.
as §1
Following a 30 minute exposure period, the chamber was flushed with 100% oxygen for 5 minutes and the animals rapidly awakened. The rats were immediately removed and injected i.p. with 80 mg/kg secobarbital. While anesthetized 3 to 4 ml of blood were withdrawn by cardiac puncture within 15 minutes of termination of anesthetic exposure (within 10 minutes of removal from the chamber). Plasma was prepared and fluoride analyzed as described above.

The test system of the next data set is rat liver microsomes. Type of data set: in vitro ADME, male Sprague-Dawley rats. As to conditions: for defluorination by rat liver microsomes, nmol F^- /mg protein/30 min ± S.E.: 1 µl anesthetic per incubation, mean and standard error of triplicate determinations; for percent decline from sevoflurane values (degree of inhibited metabolism): following correction for background (0.43). Here is the method:
The metabolism of D2-sevoflurane is expected to liberate one fluoride ion for each molecule metabolized by cytochrome P450 since the metabolism of sevoflurane liberates fluoride and hexafluoroisopropanol. To determine the metabolism of D2-sevoflurane relative to sevoflurane and enflurane, these anesthetics were incubated with hepatic microsomes from untreated male Sprague-Dawley rats (200-230g), or rats treated with isoniazid (80mg/kg, i.p. for 5 days), or phenobarbital (0.2% in the drinking water for 4 days). Isoniazid induces the cytochrome P450 isozyme P450 2E1 which is thought to metabolize the volatile anesthetics, and phenobarbital induces several forms also shown to play a role in anesthetic metabolism in the rat.
Each incubation vial (6 ml plastic vial) contained 3 ml of 5 mg/ml microsomal protein in a 0.1 M sodium phosphate buffer, pH 7.4. An NADPH generating system was added to cytochrome P450 activity, and the NADPH generating system was omitted from control incubations. […] Reactions were stopped by placing the vials on ice. Fluoride was assayed in the microsomal mixtures using fluoride ion-specific electrodes (Fisher Scientific) and a 720A Orion pH/ISE meter. Following incubation microsomes were mixed with an equal volume of TISABII buffer for fluoride analysis. Fluoride in each sample was determined from standard curves constructed using fluoride standards (10^-7 to 10^-3 M NaF) prepared from a commercially available standard solution (10^-1 M NaF).

Data set [4] in a line: Incubations with soda lime in static systems. Type of data set: physicochemical. As to conditions: for degradation products with soda lime: static system.
Data set [5] can be described thus: Breakdown by soda lime in an anesthesia circuit (gas chromatography). The data set is classed as physicochemical. As to conditions: for production of volatile degradation by-products: soda lime temperature maintained in the range of 4°C to 27°C. Here is the method:
An anesthesia circuit containing fresh soda lime (1.5 kg) was set up with an anesthesia machine (Foregger F 500). […] The gases were re-circulated at a total circuit flow rate of 1.5 liters per minute (a relatively low clinical total flow rate) in a closed system with a respirator. Carbon dioxide was added to the circuit at a constant rate of 200 ml per minute. This set up the conditions for "worst case" breakdown of sevoflurane by soda lime.
Experiments were conducted at exothermic temperature versus with the soda lime canister immersed in an ice bath. […] Products were continually detected for the remainder of the experiments (up to eight hours) by gas chromatography.

The conditions of data set [6]: cited from earlier work. This is another data set of the same source.
The mark [7] stands for this setting: Animal Treatment: Phenobarbital.

The structures appear in SMILES notation. Read-outs that look alike come from different tables or passages of the source.

With `[2H]C(F)(Cl)C(F)(F)OC(F)F` (stereo not drawn) [1,1,2-trifluoro-2-chloro-2-deuteroethyl-difluoromethyl ether], in [1], the “metabolism and defluorination relative to the undeuterated compound” value is “slower metabolism and thus slower defluorination”.
With `[2H]C(F)(Br)C(F)(F)OC(F)F` (stereo not drawn) [1,1,2-trifluroro-2-bromo-2-deuteroethyl difluoromethyl ether], the “metabolism and defluorination relative to the undeuterated compound” value in [1] is “slower metabolism and thus slower defluorination”.
As for `[2H]C(Cl)(Cl)C(F)(F)OC` [1,1-difluoro-2,2-dichloro-2-deuteroethyl methyl ether], the “metabolism and defluorination relative to the undeuterated compound” value in data set [1] is “more readily metabolized into inorganic fluoride than the undeuterated compound”; in data set [1] (listed as 1,1 difluoro-2-2-dichloro-2-deuteroethyl methyl ether), “increase inorganic fluoride release”.
As for `[2H]C(Cl)(Cl)C(F)(F)OC(F)F` [1,1-difluoro-2-deutero-2,2-dichloroethyl difluoromethyl ether], the “metabolism and defluorination relative to the undeuterated compound” value in data set [1] was “slower metabolism and thus slower defluorination”.
On to `[2H]C([2H])([2H])OC(F)(F)C(Cl)Cl` [2,2-dichloro-1,1-difluoro-1-methoxy-D3-ethane], for which the “metabolism and defluorination relative to the undeuterated compound” value in [1] was “decreased metabolism”.
For `FC(F)OC(F)(C(F)F)C(F)F` [(CHF2)2CF-O-CHF2], in data set [2] (in vivo), the anesthetic properties result is recorded as “weak anesthetic in which deep anesthesia is not obtained”; the “electro-encephalographic and convulsant activity” value is “abnormal electro-encephalographic and convulsant activity is observed”.
For the compound `COC(F)(C(F)(F)F)C(F)(F)F` [CH3OCF(CF3)2], in data set [2] (U.S. Patent 3,683,092), the “non-anesthetic up to (concentration)” value is over 8 % by volume in oxygen.
Turning to `FC(F)OCC(F)(F)C(F)(F)F` [CHF2OCH2CF2CF3], the convulsions entry in the data set with mice is “produces convulsions”. Further, the anesthetic properties result in data set [2] (in vivo) is on record as “non-anesthetic up to its lethal concentration”.
With `[2H]C([2H])(F)OC(C(F)(F)F)C(F)(F)F` [D2-sevoflurane, fluoro-dideutero-methyl-1,1,1,3,3,3,-hexafluoro-2-propyl ether], in the data set on Male Sprague-Dawley rats, the “time until rats became anesthetized after introduction of anesthetic” value (shortened to “time until rats became anesthetized”) fell in the range of 4 to 6 min. The “plasma fluoride liberated, % less than sevoflurane” value in data set [3] (isoniazid treated rats) stood at 61%; in data set [3] (phenobarbital treated animals), 66%; in data set [3] (untreated rats) it was 34%. The “plasma fluoride, % less than enflurane anesthetized animals” value in [3] (isoniazid treated rats) came out at 80%; in data set [3] (phenobarbital treated rats), 45%; in data set [3] (untreated rats), 40%. Besides, the “defluorination by rat liver microsomes, nmol F^- /mg protein/30 min ± S.E.” value in the data set with rat liver microsomes (Animal Treatment: Isoniazid) is reported as 1.55 ± 0.39 nmol F^- /mg protein/30 min; in the data set on rat liver microsomes (Animal Treatment: None) it was 0.62 ± 0.60 nmol F^- /mg protein/30 min; with rat liver microsomes (setting [7]), 0.18 ± 0.03 nmol F^- /mg protein/30 min. For the same compound, the “percent decline from sevoflurane values (degree of inhibited metabolism)” value with rat liver microsomes (microsomes from isoniazid treated rats) is given as 79%; in the data set on rat liver microsomes (microsomes from phenobarbital treated rats) it was 84%; in the data set with rat liver microsomes (microsomes from untreated rats) it was 68%. Further, in the data set with rat liver microsomes (microsomes from phenobarbital and isoniazid treated rats, over a wide range of anesthetic concentrations (figures 1 and 2)), the “defluorinated slower than sevoflurane (% less)” value was 70-86%. Further, the “degradation with soda lime, compared with sevoflurane” value in [4] (similar experiments to those run with sevoflurane) is on record as “essentially the same”. In data set [5], the “production of volatile degradation by-products” value is “virtually insignificant levels”.
As to `[2H]C(Cl)(Br)C(F)(F)F` (stereo not drawn) [Deuterated Halothane], the “effect of deuteration on metabolism” value in data set [1] (Sipes et al., J. Pharmacol. Exp. Ther. 214: 716-720, 1980) was “inhibits its metabolism to trifluoroacetic acid, but not its metabolism to release fluoride”.
On to `FCOC(C(F)(F)F)C(F)(F)F` [Sevoflurane, fluoromethyl-1,1,1,3,3,3-hexafluoro-2-propyl ether], for which the “time until rats became anesthetized” value with Male Sprague-Dawley rats was in the range of 4 to 6 min. Also, in data set [6], the “lower flammability limit in oxygen” value is “about 11.8 volume percent”. The “defluorination by rat liver microsomes, nmol F^- /mg protein/30 min ± S.E.” value in the data set with rat liver microsomes (setting [7]) was 1.18 ± 0.06 nmol F^- /mg protein/30 min. Moreover, the “degradation products with soda lime” value in data set [4] (22°C) is “some degradation products including "Compound A" were detected”; in [4] (45°C), “substantial degradation products, including "Compound A", were produced”. The “time after circuit start at which degradation products were detected” value in data set [5] (exothermic temperature, soda lime core 44°C to 47°C, initial concentration 2.7%, flow 1.5 liters per minute) is on record as “about 1.5 hours”. In [5] (soda lime canister in ice bath, core 22°C to 27°C, run up to eight hours), the degradation products detected result is recorded as “no degradation products were detected”. The “production of volatile degradation by-products” value in data set [5] is listed as “virtually insignificant levels”.
Turning to `FC(F)OC(F)(F)C(F)Cl` (stereo not drawn) [enflurane], the “time until rats became anesthetized” value in the data set on Male Sprague-Dawley rats fell in the range of 4 to 6 min. Besides, the “anesthetic concentration-dependent inhibition of metabolism” value with rat liver microsomes (microsomes from isoniazid treated rats (figure 1)) is listed as “anesthetic concentration-dependent inhibition of metabolism”.
With `FC(F)C(F)(F)COC(F)(F)F` [trifluoromethyl-2,2,3,3-tetrafluoropropyl ether], the “concentration causing violent convulsions and death (as low as)” value in the data set with mice is on record as “.5%”.

Source of the values: patent EP0682649B1, “DEUTERATED SEVOFLURANE AS AN INHALATIONAL ANESTHETIC” (UNIVERSITY OF IOWA RESEARCH FOUNDATION, priority 1993, dated 1994).
